Tests used:
[1] = Blood-brain barrier penetration (brain tissue to plasma concentration ratio); type: in vivo; details: ratio of concentration in brain tissue to plasma; rats or mice, four hours after dosing
Description: Four hours after dosing, rats or mice were sacrificed, blood and brain tissue were collected and the concentration of the test compound was analyzed. Brain permeation is defined as the ratio of the concentration of the compound in the brain tissue to the concentration in the plasma. P-glycoprotein and BCRP (Breast Cancer Resistance Protein) are the blood-brain barrier efflux proteins, the P-glycoprotein substrate (Efflux ratio>1.5) and/or BCRP substrate (Efflux ratio>1.5) is out of the brain.

[2] = biological target: P-glycoprotein (Homo sapiens, UniProt P08183); assay: P-glycoprotein efflux substrate; type: in vitro ADME; details: not told
P-glycoprotein, sequence (P08183 whole entry): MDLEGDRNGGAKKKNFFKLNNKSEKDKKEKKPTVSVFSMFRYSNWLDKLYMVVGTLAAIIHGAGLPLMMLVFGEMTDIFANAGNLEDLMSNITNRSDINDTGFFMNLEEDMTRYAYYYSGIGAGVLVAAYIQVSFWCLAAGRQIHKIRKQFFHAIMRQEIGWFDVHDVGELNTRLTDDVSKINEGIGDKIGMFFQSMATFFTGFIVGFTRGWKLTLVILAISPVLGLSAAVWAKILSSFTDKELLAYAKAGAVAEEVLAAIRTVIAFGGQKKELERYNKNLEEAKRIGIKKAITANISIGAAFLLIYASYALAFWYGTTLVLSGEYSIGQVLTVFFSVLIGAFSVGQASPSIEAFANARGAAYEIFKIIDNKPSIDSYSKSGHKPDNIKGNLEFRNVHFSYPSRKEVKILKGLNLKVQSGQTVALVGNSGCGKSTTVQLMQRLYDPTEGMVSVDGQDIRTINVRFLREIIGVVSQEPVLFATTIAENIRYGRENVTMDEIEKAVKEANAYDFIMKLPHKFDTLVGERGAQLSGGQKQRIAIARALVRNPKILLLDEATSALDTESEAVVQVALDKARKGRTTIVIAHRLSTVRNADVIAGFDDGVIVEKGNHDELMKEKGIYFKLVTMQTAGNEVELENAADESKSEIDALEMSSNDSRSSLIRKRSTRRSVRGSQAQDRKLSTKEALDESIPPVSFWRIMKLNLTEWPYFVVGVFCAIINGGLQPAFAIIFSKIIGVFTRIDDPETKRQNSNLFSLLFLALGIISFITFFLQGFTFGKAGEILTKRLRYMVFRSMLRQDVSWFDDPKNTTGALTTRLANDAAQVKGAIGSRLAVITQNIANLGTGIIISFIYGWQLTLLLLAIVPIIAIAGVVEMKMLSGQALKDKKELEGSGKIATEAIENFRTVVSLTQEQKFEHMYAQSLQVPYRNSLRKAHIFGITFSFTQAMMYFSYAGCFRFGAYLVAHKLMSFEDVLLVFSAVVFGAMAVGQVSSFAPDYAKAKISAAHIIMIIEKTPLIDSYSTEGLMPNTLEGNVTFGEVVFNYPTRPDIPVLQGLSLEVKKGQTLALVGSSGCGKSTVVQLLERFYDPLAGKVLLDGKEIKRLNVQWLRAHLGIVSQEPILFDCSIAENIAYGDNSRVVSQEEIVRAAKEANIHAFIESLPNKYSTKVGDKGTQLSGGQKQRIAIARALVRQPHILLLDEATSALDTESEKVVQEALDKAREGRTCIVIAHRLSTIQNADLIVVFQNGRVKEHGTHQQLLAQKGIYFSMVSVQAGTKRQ

[3] = biological target: T1, BCRP (Homo sapiens, UniProt Q9UNQ0); assay: BCRP efflux substrate; type: in vitro ADME; details: not told
T1 sequence (Q9UNQ0 1-655): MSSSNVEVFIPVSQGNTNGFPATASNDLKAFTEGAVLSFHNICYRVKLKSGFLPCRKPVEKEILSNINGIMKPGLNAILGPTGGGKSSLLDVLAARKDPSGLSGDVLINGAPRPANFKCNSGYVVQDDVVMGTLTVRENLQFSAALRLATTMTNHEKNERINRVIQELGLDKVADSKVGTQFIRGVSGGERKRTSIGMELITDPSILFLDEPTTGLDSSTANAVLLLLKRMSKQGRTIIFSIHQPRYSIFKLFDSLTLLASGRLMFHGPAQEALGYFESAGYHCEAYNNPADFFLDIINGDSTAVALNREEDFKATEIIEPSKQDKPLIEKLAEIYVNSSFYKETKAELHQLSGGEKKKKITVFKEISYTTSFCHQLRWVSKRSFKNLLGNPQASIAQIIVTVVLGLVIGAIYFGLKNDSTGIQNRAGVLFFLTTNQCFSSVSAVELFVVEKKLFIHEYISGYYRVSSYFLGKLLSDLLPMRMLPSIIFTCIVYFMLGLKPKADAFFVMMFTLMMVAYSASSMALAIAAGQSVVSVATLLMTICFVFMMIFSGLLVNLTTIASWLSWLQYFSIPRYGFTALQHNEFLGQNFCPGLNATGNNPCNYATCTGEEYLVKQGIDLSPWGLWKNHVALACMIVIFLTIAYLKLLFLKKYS

Structure (SMILES) | Kp at 4 h [1] | efflux ratio [2] | efflux ratio [3]
COc1ccc(-c2cc3c(cc2F)ncc2c3n([C@H]3CCN(C)CC3(F)F)c(=O)n2C)cn1 [Compound 32, (S)-1-(3,3-difluoro-1-methylpiperidin-4-yl)-7-fluoro-8-(6-methoxypyridin-3-yl)-3-methyl-1,3-dihydro-2H-imidazo[4,5-c]quinolin-2-one] | > 0.3 | < 1 | < 1
CC(C)Oc1ccc(-c2ccc3ncc4c(c3c2)n([C@H]2CCN(C)CC2(F)F)c(=O)n4C)cn1 [Compound 34, (S)-1-(3,3-difluoro-1-methylpiperidin-4-yl)-8-(6-isopropoxypyridin-3-yl)-3-methyl-1,3-dihydro-2H-imidazo[4,5-c]quinolin-2-one] | > 0.3 | < 1 | < 1
CN1CC[C@H](n2c(=O)n(C)c3cnc4ccc(-c5ccc(N(C)C)nc5)cc4c32)C(F)(F)C1 [Compound 35, (S)-1-(3,3-difluoro-1-methylpiperidin-4-yl)-8-(6-(dimethylamino)pyridin-3-yl)-3-methyl-1,3-dihydro-2H-imidazo[4,5-c]quinolin-2-one] | > 0.3 | < 1 | < 1
CN1CC[C@H](n2c(=O)n(C)c3cnc4ccc(-c5ccc(OC6CC6)nc5)cc4c32)C(F)(F)C1 [Compound 37, (S)-8-(6-cyclopropoxypyridin-3-yl)-1-(3,3-difluoro-1-methylpiperidin-4-yl)-3-methyl-1,3-dihydro-2H-imidazo[4,5-c]quinolin-2-one] | > 0.3 | < 1 | < 1
CN1CC[C@H](n2c(=O)n(C)c3cnc4ccc(-c5ccc(N6CC(N(C)C)C6)nc5)cc4c32)C(F)(F)C1 [Compound 38, (S)-1-(3,3-difluoro-1-methylpiperidin-4-yl)-8-(6-(3-(dimethylamino)azetidin-1-yl)pyridin-3-yl)-3-methyl-1,3-dihydro-2H-imidazo[4,5-c]quinolin-2-one] | > 0.3 | < 1 | < 1
CN1CC[C@H](n2c(=O)n(C)c3cnc4ccc(-c5ccc(N6C[C@@H]7[C@H]6CCN7C)nc5)cc4c32)C(F)(F)C1 [Compound 40] | > 0.3 | < 1 | < 1
CN1CC[C@H](n2c(=O)n(C)c3cnc4ccc(-c5ccc(N6C[C@H]7[C@@H]6CCN7C)nc5)cc4c32)C(F)(F)C1 [Compound 41] | > 0.3 | < 1 | < 1
